Laboratory results published in patent US20050130989A1, “N-arylheteroaromatic products compositions containing them and use thereof” (Aventis Pharma S. A., priority 2003, published 2005).
Structures can show the parent of a compound that is named as a salt.

Legend:
tubulin = target: T1, tubulin (Sus scrofa, UniProt P02550+P02554); experiment: Evaluation of the inhibition of tubulin polymerization (turbidimetry); assay type: biochemical, pig; details: tubulin 10 μm (1 mg/ml), 37° C., turbidity at 350 nm; concentration that inhibits the rate of polymerization by 50%; read-out: Inhibition of tubulin polymerization IC 50 (μm)
T1 construct: Tubulin is purified from pig brain according to published methods; from tissue; host or cells: pig brain
T1 sequence (P02550 whole entry): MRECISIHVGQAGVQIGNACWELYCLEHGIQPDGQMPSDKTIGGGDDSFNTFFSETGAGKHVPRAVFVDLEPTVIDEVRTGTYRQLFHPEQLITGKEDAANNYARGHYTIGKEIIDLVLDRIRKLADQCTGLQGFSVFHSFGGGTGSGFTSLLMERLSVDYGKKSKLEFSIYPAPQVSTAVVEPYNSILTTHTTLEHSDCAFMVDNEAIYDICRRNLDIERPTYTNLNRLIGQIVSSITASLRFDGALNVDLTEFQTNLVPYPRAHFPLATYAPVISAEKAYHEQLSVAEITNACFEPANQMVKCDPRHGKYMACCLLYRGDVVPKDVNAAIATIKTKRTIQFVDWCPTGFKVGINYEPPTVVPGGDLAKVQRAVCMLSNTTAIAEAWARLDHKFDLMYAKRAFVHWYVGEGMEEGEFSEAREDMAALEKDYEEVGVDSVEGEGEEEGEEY
T1 sequence (P02554 whole entry): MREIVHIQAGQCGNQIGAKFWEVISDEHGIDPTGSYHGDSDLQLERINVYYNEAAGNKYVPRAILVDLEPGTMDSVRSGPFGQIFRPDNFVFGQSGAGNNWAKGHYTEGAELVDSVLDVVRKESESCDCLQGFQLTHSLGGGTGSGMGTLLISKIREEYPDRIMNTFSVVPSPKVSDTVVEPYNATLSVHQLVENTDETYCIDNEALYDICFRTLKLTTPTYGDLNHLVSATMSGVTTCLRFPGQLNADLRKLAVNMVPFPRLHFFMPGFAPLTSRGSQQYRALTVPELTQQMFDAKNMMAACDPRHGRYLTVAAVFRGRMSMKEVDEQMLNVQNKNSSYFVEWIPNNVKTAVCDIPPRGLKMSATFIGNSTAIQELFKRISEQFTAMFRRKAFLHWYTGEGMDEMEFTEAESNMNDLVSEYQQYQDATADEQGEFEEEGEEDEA
Method in brief: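 Pig brain tubulin (>95% pure), 10 μm in MES pH 6.8/30% glycerol buffer plus 1 mM GTP and 6 mM MgCl2, with compound at 0.5–10 μm added before polymerization. Polymerization triggered by shift from 6° C to 37° C, followed by turbidity at 350 nm; IC50 is 50% inhibition of polymerization rate.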

HCT116 cells = experiment: Inhibition of proliferation of the human colon tumor line HCT116 ([14C]-thymidine incorporation); assay type: cell-based; details: Homo sapiens, HCT-116, 48 h, 48 hours at 37° C., read-out: Inhibition of HCT116 proliferation IC 50 (μm)
Method in brief: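 HCT116 cells (5000/well) in DMEM with 10% fetal calf serum incubated 48 h at 37° C with [14C]-thymidine (0.1 μCi/well) and compound up to 10 μm (DMSO ≤0.5%). Incorporated radioactivity counted; IC50 is concentration cutting radioactivity by 50% versus untreated control.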

SMILES | IC50 (tubulin) | IC50 (HCT116 cells)
Cc1cc(C(=O)N2CCN(c3cccc(Cl)c3)CC2)n(-c2ncccc2C#N)n1 [Example E38, 2-{5-[4-(3-Chlorophenyl)piperazine-1-carbonyl]-3-methylpyrazol-1-yl}nicotinonitrile] | 4000 nM | 19.6 nM
Cc1cc(C(=O)N2CCN(c3cccc(C(C)O)c3)CC2)n(-c2ccccc2)n1 (stereo not drawn) [Example E39, {4-[3-(1-Hydroxyethyl)phenyl]piperazin-1-yl}(5-methyl-2-phenyl-2H-pyrazol-3-yl)methanone hydrochloride] | 2500 nM | 71.9 nM
Cc1cc(C(=O)N2CCN(c3cccc(C(=O)NCCO)c3)CC2)n(-c2ccccc2)n1 [Example E40, N-(2-Hydroxyethyl)-3-[4-(5-methyl-2-phenyl-2H-pyrazole-3-carbonyl)piperazin-1-yl]benzamide] | 1600 nM | 118 nM
Cc1cc(C(=O)N2CCN(c3cccc(Cl)c3)CC2)n(-c2ccc(F)cc2F)n1 [Example E42, [4-(3-Chlorophenyl)piperazin-1-yl][2-(2,4-difluorophenyl)-5-methyl-2H-pyrazol-3-yl]methanone] | 2090 nM | 50.2 nM
Cc1cc(C(=O)N2CCN(c3cccc(Cl)c3)CC2)n(-c2c(F)c(F)cc(F)c2F)n1 [Example E43, [4-(3-Chlorophenyl)piperazin-1-yl][5-methyl-2-(2,3,5,6-tetrafluorophenyl)-2H-pyrazol-3-yl]methanone] | 2170 nM | 1460 nM
Cc1cc(C(=O)N2CCN(c3cccc(Cl)c3)CC2)n(-c2cc(Cl)ccc2Cl)n1 [Example E44, [4-(3-Chlorophenyl)piperazin-1-yl][2-(2,5-dichlorophenyl)-5-methyl-2H-pyrazol-3-yl]methanone] | 1680 nM | 236 nM
Cc1cc(C(=O)N2CCN(c3cccc(Cl)c3)CC2)n(-c2ccccc2C)n1 [Example E45, [4-(3-Chlorophenyl)piperazin-1-yl](5-methyl-2-o-tolyl-2H-pyrazol-3-yl)methanone] | 990 nM | 10.5 nM
O=C(c1cccn1-c1ccccc1)N1CCN(c2cccnc2)CC1 [Example E46, (1-Phenyl-1H-pyrrol-2-yl)[4-(pyrid-3-yl)piperazin-1-yl]methanone hydrochloride] | 14500 nM | 1240 nM
Cc1cc(C(=O)N2CCN(c3cccc(Cl)c3)CC2)n(C2CCCCC2)n1 [Example E48, [4-(3-Chlorophenyl)piperazin-1-yl](2-cyclohexyl-5-methyl-2H-pyrazol-3-yl)-methanone] | 3260 nM | 490 nM
COc1cc(OC)cc(N2CCN(C(=O)c3cccn3-c3ccccc3)CC2)c1 [Example E51, [4-(3,5-Dimethoxyphenyl)piperazin-1-yl](1-phenyl-1H-pyrrol-2-yl)methanone hydrochloride] | 1300 nM | 2300 nM
N#Cc1cccc(-n2nc(C(F)(F)F)cc2C(=O)N2CCN(c3cccc(Cl)c3)CC2)c1 [Example E55, 3-{5-[4-(3-Chlorophenyl)piperazine-1-carbonyl]-3-trifluoromethylpyrazol-1-yl}benzonitrile] | 3600 nM | 1340 nM
COc1cc(OC)cc(N2CCN(C(=O)c3cc(C(F)(F)F)nn3-c3cccc(C#N)c3)CC2)c1 [Example E56, 3-{5-[4-(3,5-Dimethoxyphenyl)piperazine-1-carbonyl]-3-trifluoromethylpyrazol-1-yl}benzonitrile] | 1100 nM | 145 nM
NC(=O)c1cccc(N2CCN(C(=O)c3cccn3-c3ccccc3)CC2)c1 [Example E57, 3-[4-(1-Phenyl-1H-pyrrole-2-carbonyl)piperazin-1-yl]benzamide] | 2000 nM | 89.8 nM
Cc1cc(C(=O)N2CCN(c3ccc(Br)c(Cl)c3)CC2)n(-c2ccccc2)n1 [Example E59, [4-(4-Bromo-3-chlorophenyl)piperazin-1-yl](5-methyl-2-phenyl-2H-pyrazol-3-yl)methanone] | 2100 nM | 104 nM
O=C(c1cc(CO)nn1-c1ccccc1)N1CCN(c2cccc(Cl)c2)CC1 [Example E60, (5-Hydroxymethyl-2-phenyl-2H-pyrazol-3-yl)[4-(3-chlorophenyl)piperazin-1l-yl]methanone] | 1370 nM | 11.7 nM
O=C(c1cc(OCc2ccccc2)nn1-c1ccccn1)N1CCN(c2cccc(Cl)c2)CC1 [Example E61, (5-Benzyloxy-2-pyrid-2-yl-2H-pyrazol-3-yl)[4-(3-chlorophenyl)piperazin-1-yl]methanone] | 2300 nM | 6090 nM
O=C(c1cc(Br)nn1-c1ccccc1)N1CCN(c2cccc(Cl)c2)CC1 [Example E65, (5-Bromo-2-phenyl-2H-pyrazol-3-yl)[4-(3-chlorophenyl)piperazin-1-yl]-methanone] | 1700 nM | 10.6 nM

SMILES | IC50 (tubulin) | IC50 (HCT116 cells)
O=C(c1cc(-c2ccccc2)nn1-c1ccccc1)N1CCN(c2cccc(Cl)c2)CC1 [Example E66, [4-(3-Chlorophenyl)piperazin-1-yl](2,5-diphenyl-2H-pyrazol-3-yl)methanone] | 3700 nM | 1830 nM
O=C(c1cc(-c2cccnc2)nn1-c1ccccc1)N1CCN(c2cccc(Cl)c2)CC1 [Example E67, [4-(3-Chlorophenyl)piperazin-1-yl][2-phenyl-5-(pyrid-3-yl)-2H-pyrazol-3-yl]methanone] | 2300 nM | 237 nM
O=C(c1cc(-c2ccsc2)nn1-c1ccccc1)N1CCN(c2cccc(Cl)c2)CC1 [Example E68, [4-(3-Chlorophenyl)piperazin-1-yl][2-phenyl-5-(thiophen-3-yl)-2H-pyrazol-3-yl]methanone] | 1400 nM | 339 nM
O=C(c1cc(-c2cccs2)nn1-c1ccccc1)N1CCN(c2cccc(Cl)c2)CC1 [Example E69, [4-(3-Chlorophenyl)piperazin-1-yl][2-phenyl-5-(thiophen-2-yl)-2H-pyrazol-3-yl]methanone] | 1700 nM | 6150 nM
O=Cc1cc(C(=O)N2CCN(c3cccc(Cl)c3)CC2)n(-c2ccccc2)n1 [Example E70, 5-[4-(3-Chlorophenyl)piperazine-1-carbonyl]-1-phenyl-1H-pyrazole-3-carboxaldehyde] | 1300 nM | 10.8 nM
Cc1cc(C(=O)N2CCN(c3ccc(F)c(Cl)c3)CC2)n(-c2ccccc2)n1 [Example E72, [4-(3-Chloro-4-fluorophenyl)piperazin-1-yl](5-methyl-2-phenyl-2H-pyrazol-3-yl)methanone] | 1550 nM | 6.6 nM
COc1cc(OC)cc(N2CCN(C(=O)c3cc(CO)nn3-c3ccccc3)CC2)c1 [Example E73, [4-(3,5-Dimethoxyphenyl)piperazin-1-yl](3-hydroxymethyl-1-phenyl-1H-pyrazol-5-yl)methanone] | 990 nM | 6.9 nM
Cc1nccn1Cc1cc(C(=O)N2CCN(c3cccc(Cl)c3)CC2)n(-c2ccccc2)n1 [Example E75, [4-(3-Chlorophenyl)piperazin-1-yl][5-(2-methylimidazol-1-ylmethyl)-2-phenyl-2H-pyrazol-3-yl]methanone] | 5100 nM | 61.2 nM
O=C(c1cc(CNc2ccccc2)nn1-c1ccccc1)N1CCN(c2cccc(Cl)c2)CC1 [Example E76, [4-(3-Chlorophenyl)piperazin-1-yl](2-phenyl-5-phenylaminomethyl-2H-pyrazol-3-yl)methanone] | 1900 nM | 138 nM
Cc1cc(C(=O)N2CCN(c3cc(Cl)ccc3Br)CC2)n(-c2ccccc2)n1 [Example E77, [4-(2-Bromo-5-chlorophenyl)piperazin-1-yl](5-methyl-2-phenyl-2H-pyrazol-3-yl)methanone] | 700 nM | 26.7 nM
COc1cc(OC)cc(N2CCN(C(=O)c3cc(C(Br)Br)nn3-c3ccccc3)CC2)c1 [Example E78, [4-(3,5-Dimethoxyphenyl)piperazin-1-yl](3-dibromomethyl-1-phenyl-1H-pyrazol-5-yl)methanone] | 14000 nM | 318 nM
Cc1cc(C(=O)N2CCN(c3cc(Cl)c(Br)cc3Br)CC2)n(-c2ccccc2)n1 [Example E79, [4-(2,4-Dibromo-5-chlorophenyl)piperazin-1-yl](5-methyl-2-phenyl-2H-pyrazol-3-yl)methanone] | 2200 nM | 1040 nM
O=C(c1cc(COCc2ccccc2)nn1-c1ccccc1)N1CCN(c2cccc(Cl)c2)CC1 [Example E80, (5-Benzyloxymethyl-2-phenyl-2H-pyrazol-3-yl)[4-(3-chlorophenyl)piperazin-1-yl]methanone] | 4400 nM | 1130 nM
COc1cc(OC)cc(N2CCN(C(=O)c3cc(Br)nn3-c3ccccc3)CC2)c1 [Example E82, (5-Bromo-2-phenyl-2H-pyrazol-3-yl)[4-(3,5-dimethoxyphenyl)piperazin-1-y]-methanone] | 940 nM | 1.8 nM
COc1cc(OC)cc(N2CCN(C(=O)c3cc(-c4ccsc4)nn3-c3ccccc3)CC2)c1 [Example E85, [4-(3,5-Dimethoxyphenyl)piperazin-1-yl][2-phenyl-5-(thiophen-3-yl)-2H-pyrazol-3-yl]methanone] | 1390 nM | 181 nM
C/C=C/c1cc(C(=O)N2CCN(c3cc(OC)cc(OC)c3)CC2)n(-c2ccccc2)n1 [Example E86] | 870 nM | 6.8 nM
